“And” between values parts separate entries of the source, which are not always exact repeats. Identical values can stand only once.
Tested on: K98450-129-R-PDC complex spheroid growth, percent test/control
Assay: Anticancer human tumor K98450-129-R-PDC patient-derived colon adenocarcinoma cell line growth inhibition [RAS]
Settings: for viability, T/C: stronger effect = lower value
In short: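 Agents were tested in combination matrices in half-log decrements from a top concentration at or near clinical Cmax (10 microM if undetermined). Targets were multi-cell spheroids of tumour lines plus HUVEC and MSC stromal cells.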

[1] = curve of first compound, second compound 0.0316 µM
[2] = curve of first compound, second compound 0.1 µM
[3] = curve of first compound, second compound 0.316 µM
[4] = curve of first compound, second compound 1 µM
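Also: spheroids exposed to agents for seven days before the viability readout.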
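For viability, T/C in this document: luminescence used as a proxy for viable cell amount.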

CC(C)n1nc(-c2ccc3oc(N)nc3c2)c2c(N)ncnc21 + C=CC(=O)N1CCN(c2nc(OCC3CCCN3C)nc3c(F)c(-c4nc(N)cc(C)c4C(F)(F)F)c(Cl)cc23)C(C)C1
IC50 (curve of first compound, second compound 0.00316 µM): > 100 nM | IC50 (curve of first compound, second compound 0.01 µM): > 100 nM | IC50 [1]: 17.8 nM | IC50 [2]: 1.5 nM | IC50 [3]: < 0.316 nM | IC50 [4]: < 0.316 nM | viability, T/C (second compound 0.00316 µM, first compound 0.000316 µM): 90.9% | viability, T/C (second compound 0.00316 µM, first compound 0.001 µM): 85.2% | viability, T/C (second compound 0.00316 µM, first compound 0.00316 µM): 87.9% | viability, T/C (second compound 0.00316 µM, first compound 0.01 µM): 82.4% | viability, T/C (second compound 0.00316 µM, first compound 0.0316 µM): 76.5% | viability, T/C (second compound 0.00316 µM, first compound 0.1 µM): 56.9% | viability, T/C (second compound 0.01 µM, first compound 0.000316 µM): 75.9% | viability, T/C (second compound 0.01 µM, first compound 0.001 µM): 78.9% | viability, T/C (second compound 0.01 µM, first compound 0.00316 µM): 75% | viability, T/C (second compound 0.01 µM, first compound 0.01 µM): 70% | viability, T/C (second compound 0.01 µM, first compound 0.0316 µM): 61.2% | viability, T/C (second compound 0.01 µM, first compound 0.1 µM): 51.6% | viability, T/C (second compound 0.0316 µM, first compound 0.000316 µM): 70.2% | viability, T/C (second compound 0.0316 µM, first compound 0.001 µM): 58.8% | viability, T/C (second compound 0.0316 µM, first compound 0.00316 µM): 62.3% | viability, T/C (second compound 0.0316 µM, first compound 0.01 µM): 52.3% | viability, T/C (second compound 0.0316 µM, first compound 0.0316 µM): 47.1% | viability, T/C (second compound 0.0316 µM, first compound 0.1 µM): 40.5% | viability, T/C (second compound 0.1 µM, first compound 0.000316 µM): 54.7% | viability, T/C (second compound 0.1 µM, first compound 0.001 µM): 51% | viability, T/C (second compound 0.1 µM, first compound 0.00316 µM): 46.1% | viability, T/C (second compound 0.1 µM, first compound 0.01 µM): 44.3% | viability, T/C (second compound 0.1 µM, first compound 0.0316 µM): 33.9% | viability, T/C (second compound 0.1 µM, first compound 0.1 µM): 27.2% | viability, T/C (second compound 0.316 µM, first compound 0.000316 µM): 38.8% | viability, T/C (second compound 0.316 µM, first compound 0.001 µM): 37% | viability, T/C (second compound 0.316 µM, first compound 0.00316 µM): 33.1% | viability, T/C (second compound 0.316 µM, first compound 0.01 µM): 30.9% | viability, T/C (second compound 0.316 µM, first compound 0.0316 µM): 25.7% | viability, T/C (second compound 0.316 µM, first compound 0.1 µM): 20.1% | viability, T/C (second compound 1 µM, first compound 0.000316 µM): 29.1% | viability, T/C (second compound 1 µM, first compound 0.001 µM): 27.5% | viability, T/C (second compound 1 µM, first compound 0.00316 µM): 33.5% | viability, T/C (second compound 1 µM, first compound 0.01 µM): 25% | viability, T/C (second compound 1 µM, first compound 0.0316 µM): 21.4% | viability, T/C (second compound 1 µM, first compound 0.1 µM): 17.6%

CC(C)n1nc(-c2ccc3oc(N)nc3c2)c2c(N)ncnc21
viability, T/C (compound 0.000316 µM): 106% [middle of 4 runs] | viability, T/C (compound 0.001 µM): 90.9% [middle of 4 runs] | viability, T/C (compound 0.00316 µM): 93.6% [middle of 4 runs] | viability, T/C (compound 0.01 µM): 96.8% [middle of 4 runs] | viability, T/C (compound 0.0316 µM): 79.8% [middle of 4 runs] | viability, T/C (compound 0.1 µM): 78.4% (2×) and 86.4% and 72.6% | IC50 (curve of compound): > 100 nM

CCc1c2c(nc3ccc(O)cc13)-c1cc3c(c(=O)n1C2)COC(=O)[C@]3(O)CC + C#Cc1c(F)ccc2cc(O)cc(-c3ncc4c(N5CC6CCC(C5)N6)nc(OCC56CCCN5CC(F)C6)nc4c3F)c12
IC50 [1]: 36.4 nM | IC50 [2]: 44.1 nM | IC50 [3]: 47.9 nM | IC50 [4]: 46.9 nM | IC50 (curve of first compound, second compound 3.16 µM): 43.3 nM | IC50 (curve of first compound, second compound 10 µM): 32.8 nM | viability, T/C (second compound 0.0316 µM, first compound 0.000949 µM): 103% | viability, T/C (second compound 0.0316 µM, first compound 0.003 µM): 102% | viability, T/C (second compound 0.0316 µM, first compound 0.00949 µM): 75.7% | viability, T/C (second compound 0.0316 µM, first compound 0.03 µM): 52.2% | viability, T/C (second compound 0.0316 µM, first compound 0.0949 µM): 43.3% | viability, T/C (second compound 0.0316 µM, first compound 0.3 µM): 33.5% | viability, T/C (second compound 0.1 µM, first compound 0.000949 µM): 109% | viability, T/C (second compound 0.1 µM, first compound 0.003 µM): 101% | viability, T/C (second compound 0.1 µM, first compound 0.00949 µM): 80.5% | viability, T/C (second compound 0.1 µM, first compound 0.03 µM): 52.5% | viability, T/C (second compound 0.1 µM, first compound 0.0949 µM): 44.4% | viability, T/C (second compound 0.1 µM, first compound 0.3 µM): 33% | viability, T/C (second compound 0.316 µM, first compound 0.000949 µM): 108% | viability, T/C (second compound 0.316 µM, first compound 0.003 µM): 101% | viability, T/C (second compound 0.316 µM, first compound 0.00949 µM): 84.5% | viability, T/C (second compound 0.316 µM, first compound 0.03 µM): 54.4% | viability, T/C (second compound 0.316 µM, first compound 0.0949 µM): 43.6% | viability, T/C (second compound 0.316 µM, first compound 0.3 µM): 34% | viability, T/C (second compound 1 µM, first compound 0.000949 µM): 109% | viability, T/C (second compound 1 µM, first compound 0.003 µM): 100% | viability, T/C (second compound 1 µM, first compound 0.00949 µM): 86.8% | viability, T/C (second compound 1 µM, first compound 0.03 µM): 54% | viability, T/C (second compound 1 µM, first compound 0.0949 µM): 42.9% | viability, T/C (second compound 1 µM, first compound 0.3 µM): 36.9% | viability, T/C (second compound 3.16 µM, first compound 0.000949 µM): 95.7% | viability, T/C (second compound 3.16 µM, first compound 0.003 µM): 89.3% | viability, T/C (second compound 3.16 µM, first compound 0.00949 µM): 78.1% | viability, T/C (second compound 3.16 µM, first compound 0.03 µM): 51.9% | viability, T/C (second compound 3.16 µM, first compound 0.0949 µM): 43.6% | viability, T/C (second compound 3.16 µM, first compound 0.3 µM): 33.1% | viability, T/C (second compound 10 µM, first compound 0.000949 µM): 87.2% | viability, T/C (second compound 10 µM, first compound 0.003 µM): 84.3% | viability, T/C (second compound 10 µM, first compound 0.00949 µM): 75.5% | viability, T/C (second compound 10 µM, first compound 0.03 µM): 50.9% | viability, T/C (second compound 10 µM, first compound 0.0949 µM): 37.2% | viability, T/C (second compound 10 µM, first compound 0.3 µM): 33.8%
